Reference: US11753445B2, “Therapeutic peptides” (COHBAR, INC., priority 2016, dated 2023)
Peptide text beside a SMILES is read from it.

Test system: 3T3-L1 Adipocytes
Assay: Free fatty acid levels in cultured mouse 3T3-L1 adipocytes, isoproterenol stimulated (Example 2)
Assay type: cell-based
Details: test peptides 25 μM; isoproterenol 1 nM
In short: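 3T3-L1 cells differentiated 12–17 days into adipocytes, then exposed to test peptides at 25 μM final for 18–20 h, then 1 h, then 3 h with isoproterenol (1 nM) at 37 °C. Free fatty acids in the medium measured colorimetrically at 540 nm, corrected for untreated background and expressed relative to isoproterenol-only cells.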

`CC[C@H](C)[C@H](NC(=O)[C@H](Cc1ccc(O)cc1)NC(=O)CNC(=O)[C@H](CCSC)NC(=O)[C@H](CCC(=O)O)NC(=O)[C@H](CCC(N)=O)NC(=O)[C@H](Cc1c[nH]c2ccccc12)NC(=O)[C@H](CCCNC(=N)N)NC(=O)[C@H](CCSC)NC(C)=O)C(=O)N[C@@H](Cc1ccccc1)C(=O)N[C@@H](Cc1ccc(O)cc1)C(=O)N1CCC[C@H]1C(=O)N[C@@H](CCCNC(=N)N)C(=O)N[C@H](C)C(=O)N[C@@H](CC(C)C)C(=O)N[C@@H](CCCNC(=N)N)C(N)=O` [compound 165] (HELM PEPTIDE1{[ac].M.R.W.Q.E.M.G.Y.I.F.Y.P.R.[dA].L.R.[am]}$$$$V2.0) was tested, and the “Free Fatty Acid Levels in 3T3-L1 Adipocytes Expressed as a Percent of Isoproterenol Control: Percent of Control Value” was 82.0%.

In the case of Ac-LKWQEMGYIFYPRLKR-NH2 [compound 114], the “Free Fatty Acid Levels in 3T3-L1 Adipocytes Expressed as a Percent of Isoproterenol Control: Percent of Control Value” is reported as 78.4%.

For `CC[C@H](C)[C@@H]1NC(=O)[C@H](Cc2ccc(O)cc2)NC(=O)CNC(=O)[C@H](CCSC)NC(=O)[C@H](CCC(=O)O)NC(=O)[C@@H](NC(=O)[C@H](Cc2c[nH]c3ccccc23)NC(=O)[C@H](CCCNC(=N)N)NC(=O)[C@@H](N)CCSC)CCC(=O)NCCCC[C@@H](C(=O)N[C@@H](CCCNC(=N)N)C(=O)N[C@@H](CCCCN)C(=O)N[C@@H](CC(C)C)C(=O)N[C@@H](CCCNC(=N)N)C(=O)O)NC(=O)[C@H](Cc2ccc(O)cc2)NC(=O)[C@H](Cc2ccccc2)NC1=O` [compound 223] (HELM PEPTIDE1{M.R.W.E.E.M.G.Y.I.F.Y.K.R.K.L.R}$PEPTIDE1,PEPTIDE1,4:R3-12:R3$$$V2.0), the “Free Fatty Acid Levels in 3T3-L1 Adipocytes Expressed as a Percent of Isoproterenol Control: Percent of Control Value” was 64.6%.

With `CC[C@H](C)[C@H](NC(=O)[C@H](Cc1ccc(O)cc1)NC(=O)CNC(=O)[C@H](CCSC)NC(=O)[C@H](CCC(=O)O)NC(=O)[C@H](CCC(N)=O)NC(=O)[C@H](Cc1c[nH]c2ccccc12)NC(=O)[C@H](CCCNC(=N)N)NC(=O)[C@H](CCSC)NC(C)=O)C(=O)N[C@@H](Cc1ccccc1)C(=O)N[C@@H](Cc1ccc(O)cc1)C(=O)N[C@H](C)C(=O)N[C@@H](CCCNC(=N)N)C(=O)N[C@@H](CCCCN)C(=O)N[C@@H](CC(C)C)C(=O)N[C@@H](CCCNC(=N)N)C(N)=O` [compound 163] (HELM PEPTIDE1{[ac].M.R.W.Q.E.M.G.Y.I.F.Y.[dA].R.K.L.R.[am]}$$$$V2.0) the “Free Fatty Acid Levels in 3T3-L1 Adipocytes Expressed as a Percent of Isoproterenol Control: Percent of Control Value” was 91.8%.

For Ac-MREQEMGYIFYPRKLR-NH2 [compound 185], the “Free Fatty Acid Levels in 3T3-L1 Adipocytes Expressed as a Percent of Isoproterenol Control: Percent of Control Value” was 77.0%.

With Ac-LKWQEMGYIFYPLRKR-NH2 [compound 113] the “Free Fatty Acid Levels in 3T3-L1 Adipocytes Expressed as a Percent of Isoproterenol Control: Percent of Control Value” was 82.8%.

With H-ERWQEAGYIFYPRKLA-OH [compound 233] the “Free Fatty Acid Levels in 3T3-L1 Adipocytes Expressed as a Percent of Isoproterenol Control: Percent of Control Value” was 69.7%.

`CSCC[C@H](NC(C)=O)C(=O)N[C@@H](CCCNC(=N)N)C(=O)N[C@@H](Cc1c[nH]c2ccccc12)C(=O)N[C@@H](CCC(N)=O)C(=O)N[C@@H](CCC(=O)O)C(=O)N[C@@H](CCSC)C(=O)NCC(=O)N[C@@H](Cc1ccc(O)cc1)C(=O)N[C@H](C)C(=O)N[C@@H](Cc1ccccc1)C(=O)N[C@@H](Cc1ccc(O)cc1)C(=O)N1CCC[C@H]1C(=O)N[C@@H](CCCNC(=N)N)C(=O)N[C@@H](CCCCN)C(=O)N[C@@H](CC(C)C)C(=O)N[C@@H](CCCNC(=N)N)C(N)=O` [compound 160] (HELM PEPTIDE1{[ac].M.R.W.Q.E.M.G.Y.[dA].F.Y.P.R.K.L.R.[am]}$$$$V2.0) was tested, and the “Free Fatty Acid Levels in 3T3-L1 Adipocytes Expressed as a Percent of Isoproterenol Control: Percent of Control Value” was 87.1%.

In the case of Ac-ERWQEMGYIFYPRKLR-NH2 [compound 183], the “Free Fatty Acid Levels in 3T3-L1 Adipocytes Expressed as a Percent of Isoproterenol Control: Percent of Control Value” is reported as 81.6%.

For H-MRWQEMGYIFY-OH [compound 49], the “Free Fatty Acid Levels in 3T3-L1 Adipocytes Expressed as a Percent of Isoproterenol Control: Percent of Control Value” was 103.3%.

In the case of `CC[C@H](C)[C@H](NC(=O)[C@H](Cc1ccc(O)cc1)NC(=O)CNC(=O)[C@H](CCSC)NC(=O)[C@H](CCC(=O)O)NC(=O)[C@H](CCC(N)=O)NC(=O)[C@H](Cc1c[nH]c2ccccc12)NC(=O)[C@@H](C)NC(=O)[C@@H](N)CCSC)C(=O)N[C@@H](Cc1ccccc1)C(=O)N[C@@H](Cc1ccc(O)cc1)C(=O)N1CCC[C@H]1C(=O)N[C@@H](CCCNC(=N)N)C(=O)N[C@@H](CCCCN)C(=O)N[C@@H](CC(C)C)C(=O)N[C@@H](CCCNC(=N)N)C(=O)O` [compound 137] (HELM PEPTIDE1{M.[dA].W.Q.E.M.G.Y.I.F.Y.P.R.K.L.R}$$$$V2.0), the “Free Fatty Acid Levels in 3T3-L1 Adipocytes Expressed as a Percent of Isoproterenol Control: Percent of Control Value” is reported as 91.4%.

For `CC[C@H](C)[C@H](NC(=O)[C@H](Cc1ccc(O)cc1)NC(=O)CNC(=O)[C@H](CCSC)NC(=O)[C@H](CCC(=O)O)NC(=O)[C@H](CCC(N)=O)NC(=O)[C@H](Cc1c[nH]c2ccccc12)NC(=O)[C@H](CCCNC(=N)N)NC(=O)[C@@H](N)CCSC)C(=O)N[C@@H](Cc1ccccc1)C(=O)N[C@@H](Cc1ccc(O)cc1)C(=O)N1CCC[C@H]1C(=O)N[C@@H](CCCNC(=N)N)C(=O)N[C@@H](CCCCN)C(=O)N[C@H](C)C(=O)N[C@@H](CCCNC(=N)N)C(=O)O` [compound 150] (HELM PEPTIDE1{M.R.W.Q.E.M.G.Y.I.F.Y.P.R.K.[dA].R}$$$$V2.0), the “Free Fatty Acid Levels in 3T3-L1 Adipocytes Expressed as a Percent of Isoproterenol Control: Percent of Control Value” was 53.9%.

With `CC[C@H](C)[C@H](NC(=O)[C@H](Cc1ccc(O)cc1)NC(=O)CNC(=O)[C@H](CCC(=O)O)NC(=O)[C@H](CCC(=O)O)NC(=O)[C@H](CCC(N)=O)NC(=O)[C@H](Cc1c[nH]c2ccccc12)NC(=O)[C@H](CCCNC(=N)N)NC(=O)[C@@H](C)N)C(=O)N[C@@H](C)C(=O)N[C@@H](Cc1ccc(O)cc1)C(=O)N1CCC[C@H]1C(=O)N[C@@H](CCCNC(=N)N)C(=O)N[C@@H](CCCCN)C(=O)N[C@@H](CC(C)C)C(=O)N[C@@H](C)C(=O)O` [compound 236] (HELM PEPTIDE1{[dA].R.W.Q.E.E.G.Y.I.A.Y.P.R.K.L.A}$$$$V2.0) the “Free Fatty Acid Levels in 3T3-L1 Adipocytes Expressed as a Percent of Isoproterenol Control: Percent of Control Value” was 74.8%.

`CC[C@H](C)[C@H](NC(=O)[C@H](Cc1ccc(O)cc1)NC(=O)CNC(=O)[C@H](CCSC)NC(=O)[C@H](CCC(=O)O)NC(=O)[C@H](CCC(N)=O)NC(=O)[C@H](Cc1c[nH]c2ccccc12)NC(=O)[C@H](CCCNC(=N)N)NC(=O)[C@@H](N)CCSC)C(=O)N[C@@H](Cc1ccccc1)C(=O)N[C@H](C)C(=O)N1CCC[C@H]1C(=O)N[C@@H](CCCNC(=N)N)C(=O)N[C@@H](CCCCN)C(=O)N[C@@H](CC(C)C)C(=O)N[C@@H](CCCNC(=N)N)C(=O)O` [compound 146] (HELM PEPTIDE1{M.R.W.Q.E.M.G.Y.I.F.[dA].P.R.K.L.R}$$$$V2.0) was tested, and the “Free Fatty Acid Levels in 3T3-L1 Adipocytes Expressed as a Percent of Isoproterenol Control: Percent of Control Value” was 55.9%.

`CC[C@H](C)[C@H](NC(=O)[C@H](Cc1ccc(O)cc1)NC(=O)CNC(=O)[C@H](CCSC)NC(=O)[C@H](CCC(=O)O)NC(=O)[C@H](CCC(N)=O)NC(=O)[C@H](Cc1c[nH]c2ccccc12)NC(=O)[C@H](CCCNC(=N)N)NC(=O)[C@H](CCSC)NC(C)=O)C(=O)N[C@@H](Cc1ccccc1)C(=O)N[C@@H](Cc1ccc(O)cc1)C(=O)N1CCC[C@H]1C(=O)N[C@@H](CCCNC(=N)N)C(=O)N[C@@H](CCCCN)C(=O)N[C@@H](CC(C)C)C(=O)N[C@H](C)C(N)=O` [compound 167] (HELM PEPTIDE1{[ac].M.R.W.Q.E.M.G.Y.I.F.Y.P.R.K.L.[dA].[am]}$$$$V2.0) was tested, and the “Free Fatty Acid Levels in 3T3-L1 Adipocytes Expressed as a Percent of Isoproterenol Control: Percent of Control Value” was 70.9%.

With `CC[C@H](C)[C@H](NC(=O)[C@H](Cc1ccc(O)cc1)NC(=O)[C@@H](C)NC(=O)[C@H](CCSC)NC(=O)[C@H](CCC(=O)O)NC(=O)[C@H](CCC(N)=O)NC(=O)[C@H](Cc1c[nH]c2ccccc12)NC(=O)[C@H](CCCNC(=N)N)NC(=O)[C@@H](N)CCSC)C(=O)N[C@@H](Cc1ccccc1)C(=O)N[C@@H](Cc1ccc(O)cc1)C(=O)N1CCC[C@H]1C(=O)N[C@@H](CCCNC(=N)N)C(=O)N[C@@H](CCCCN)C(=O)N[C@@H](CC(C)C)C(=O)N[C@@H](CCCNC(=N)N)C(=O)O` [compound 142] (HELM PEPTIDE1{M.R.W.Q.E.M.[dA].Y.I.F.Y.P.R.K.L.R}$$$$V2.0) the “Free Fatty Acid Levels in 3T3-L1 Adipocytes Expressed as a Percent of Isoproterenol Control: Percent of Control Value” was 31.9%.

With Ac-LKWQEMGYIFYPRKLR-NH2 [compound 112] the “Free Fatty Acid Levels in 3T3-L1 Adipocytes Expressed as a Percent of Isoproterenol Control: Percent of Control Value” was 90.5%.

`CC[C@H](C)[C@H](NC(=O)[C@H](Cc1ccc(O)cc1)NC(=O)CNC(=O)[C@H](C)NC(=O)[C@H](CCC(=O)O)NC(=O)[C@H](CCC(N)=O)NC(=O)[C@H](Cc1c[nH]c2ccccc12)NC(=O)[C@H](CCCNC(=N)N)NC(=O)[C@@H](N)CCC(=O)O)C(=O)N[C@@H](Cc1ccccc1)C(=O)N[C@@H](Cc1ccc(O)cc1)C(=O)N1CCC[C@H]1C(=O)N[C@@H](CCCNC(=N)N)C(=O)N[C@@H](CCCCN)C(=O)N[C@@H](CC(C)C)C(=O)N[C@H](C)C(=O)O` [compound 234] (HELM PEPTIDE1{E.R.W.Q.E.A.G.Y.I.F.Y.P.R.K.L.[dA]}$$$$V2.0) was tested, and the “Free Fatty Acid Levels in 3T3-L1 Adipocytes Expressed as a Percent of Isoproterenol Control: Percent of Control Value” was 73.8%.

In the case of `CC[C@H](C)[C@H](NC(=O)[C@H](Cc1ccc(O)cc1)NC(=O)CNC(=O)[C@H](CCSC)NC(=O)[C@H](CCC(=O)O)NC(=O)[C@H](CCC(N)=O)NC(=O)[C@H](Cc1c[nH]c2ccccc12)NC(=O)[C@H](CCCNC(=N)N)NC(=O)[C@@H](N)CCSC)C(=O)N[C@@H](Cc1ccccc1)C(=O)N[C@@H](Cc1ccc(O)cc1)C(=O)N1CCC[C@H]1C(=O)N[C@@H](CCCNC(=N)N)C(=O)N[C@@H](CCCCN)C(=O)NC(CC)(CC)C(=O)N[C@@H](CCCNC(=N)N)C(=O)O` [compound 198] (HELM PEPTIDE1{M.R.W.Q.E.M.G.Y.I.F.Y.P.R.K.[CCC(CC)(N[*:1])C(=O)[*:2]].R}$$$$V2.0), the “Free Fatty Acid Levels in 3T3-L1 Adipocytes Expressed as a Percent of Isoproterenol Control: Percent of Control Value” is reported as 69.2%.

In the case of H-MRWQEMGYIFYPRRLR-OH [compound 125], the “Free Fatty Acid Levels in 3T3-L1 Adipocytes Expressed as a Percent of Isoproterenol Control: Percent of Control Value” is reported as 50.2%.

In the case of Ac-LRWQEMGYIFYPRKRL-NH2 [compound 111], the “Free Fatty Acid Levels in 3T3-L1 Adipocytes Expressed as a Percent of Isoproterenol Control: Percent of Control Value” is reported as 106.0%.
